Patent US20240148821A1, “PHARMACEUTICAL USE OF CYCLIC PEPTIDE COMPOUND” (CHUGAI SEIYAKU KABUSHIKI KAISHA, priority 2021, published 2024)
Numbered stars: 1 amine (or outer) side, 2 acyl side, 3 side chain; on linkers, the order of the positions; unused ones are H or OH. Bridge positions count the residues as written; N and C are the ends. Square brackets hold non-standard residues; d marks the D form. Peptide text beside a SMILES is read from it. * marks the point of attachment. hPhe(3,5-F2-4-CF3) = N[C@@H](CCc1cc(F)c(C(F)(F)F)c(F)c1)C(=O)O; hPhe(3-Cl-4-CF3) = N[C@@H](CCc1ccc(C(F)(F)F)c(Cl)c1)C(=O)O; hPhe(3-F,4-CF3) = N[C@@H](CCc1ccc(C(F)(F)F)c(F)c1)C(=O)O; NMePhe(4-CF3) = CN[C@@H](Cc1ccc(C(F)(F)F)cc1)C(=O)O; NEtPhe(4-Me) = CCN[C@@H](Cc1ccc(C)cc1)C(=O)O; NMeAbu(4,4,4-F3) = CN[C@@H](CC(F)(F)F)C(=O)O; NMedβ3hAla = C[C@H](CC(=O)[*:2])N(C)[*:1]; NMeGly(cPent) = CN[C@H](C(=O)O)C1CCCC1; NMeCha = CN[C@@H](CC1CCCCC1)C(=O)O; Hyp = O=C(O)[C@@H]1C[C@@H](O)CN1; NMeChg = CN[C@H](C(=O)O)C1CCCCC1; NMeI = CC[C@H](C)[C@H](NC)C(=O)O; NMeE = CN[C@@H](CCC(=O)O)C(=O)O; NMeD = CN[C@@H](CC(=O)O)C(=O)O; NMeL = CN[C@@H](CC(C)C)C(=O)O; NMeV = CN[C@H](C(=O)O)C(C)C; Azetidin(1-yl) = C1CN(*)C1; NMeS = CN[C@@H](CO)C(=O)O; NMeA = CN[C@@H](C)C(=O)O; Piperidide = C1CCN(*)CC1; Pyrrolidide = C1CCN(*)C1; Ac5c = NC1(C(=O)O)CCCC1; Aze = O=C(O)[C@@H]1CCN1; Sar = CNCC(=O)O; OAll = C=CCO*; Propyl = CCC*

Tests used:
[1] = tested on: Human pancreatic cancer cell line AsPC-1 (G12D mutation Kras); assay: AsPC-1 cell growth inhibition (AsPC-1 CGI); type: cell-based; settings: read-out: AsPC-1 cell growth inhibition, 50% growth inhibitory concentration (IC50 value); 96 hours, CellTiter-Glo, values classified in ranges
[2] = molecular target: protein-protein interaction between Kras and SOS1 (biotin-tagged human Kras loaded with GDP, His-tagged human SOS1) (Homo sapiens (Human), UniProt P01116, G12D); assay: Protein-protein interaction inhibition between Kras and SOS1 (KrasG12D-SOS PPI) using AlphaScreen; type: biochemical; settings: AlphaScreen; biotin-tagged human Kras loaded with GDP, His-tagged human SOS1; read-out: KRAS G12D-SOS PPI IC50;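 note: kras produced in E. coli, Ni-coupled donor beads and streptavidin acceptor beads, excitation 680 nm with emission detected at 520–620 nm via singlet oxygen transfer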

Compound	IC50 [1]	IC50 [2]
CC[C@H](C)[C@@H]1NC(=O)[C@H](CC(C)C)N(C)C(=O)C[C@@H](C(=O)N2CCCCC2)N(C)C(=O)[C@H](C2CCCCC2)N(C)C(=O)C2(CCCC2)NC(=O)[C@H](CCC(=O)NC)N(C)C(=O)[C@H](CCc2ccc(C(F)(F)F)c(Cl)c2)NC(=O)CN(C)C(=O)[C@H](CC2CCCCC2)N(C)C(=O)CN(C)C(=O)CN(C)C1=O [Compound 590] ([NMeL]I[Sar][Sar][NMeCha][Sar][hPhe(3-Cl-4-CF3)][NMeE](NHMe)[Ac5c][NMeChg][NMeD]-Piperidide; lactam N-11)	> 500 nM	1.4 nM
CC[C@H](C)[C@@H]1NC(=O)[C@H](CC(C)C)N(C)C(=O)C[C@@H](C)N(C)C(=O)[C@H]([C@@H](C)CC)N(C)C(=O)C2(CCCC2)NC(=O)[C@@H]2CCCN2C(=O)[C@H](CCc2cc(F)c(C(F)(F)F)c(F)c2)NC(=O)CN(C)C(=O)[C@H](Cc2ccc(C(F)(F)F)cc2)N(C)C(=O)[C@@H]2CCN2C(=O)[C@H](C)N(C)C1=O [Compound 907] (cyclo([Ac5c][NMeI][NMedβ3hAla][NMeL]I[NMeA][Aze][NMePhe(4-CF3)][Sar][hPhe(3,5-F2-4-CF3)]P))	≤ 20 nM	1.4 nM
CC[C@H](C)[C@@H]1NC(=O)[C@H](CC(C)C)N(C)C(=O)C[C@@H](C(=O)N2CCC2)N(C)C(=O)[C@H](C2CCCC2)N(C)C(=O)C2(CCCC2)NC(=O)[C@@H]2CCCN2C(=O)[C@H](CCc2cc(F)c(C(F)(F)F)c(F)c2)NC(=O)CN(C)C(=O)[C@H](Cc2ccc(C)cc2)N(CC)C(=O)[C@@H]2CCN2C(=O)[C@H](C)N(C)C1=O [Compound 55] ([NMeL]I[NMeA][Aze][NEtPhe(4-Me)][Sar][hPhe(3,5-F2-4-CF3)]P[Ac5c][NMeGly(cPent)][NMeD]-{Azetidin(1-yl)}; lactam N-11)	≤ 20 nM	0.77 nM
CCCOC[C@H]1C(=O)N(C)CC(=O)N[C@@H](CCc2ccc(C(F)(F)F)c(Cl)c2)C(=O)N2CCC[C@H]2C(=O)NC2(CCCC2)C(=O)N(C)[C@@H](C2CCCC2)C(=O)N(C)[C@H](C(=O)N2CCCCC2)CC(=O)N(C)[C@@H](CC(C)C)C(=O)N[C@@H]([C@@H](C)CC)C(=O)N(C)[C@@H](C)C(=O)N2CC[C@H]2C(=O)N1C [Compound 415] ([NMeL]I[NMeA][Aze][NMeS](Propyl)[Sar][hPhe(3-Cl-4-CF3)]P[Ac5c][NMeGly(cPent)][NMeD]-Piperidide; lactam N-11)	≤ 20 nM	1.5 nM
C=CCOC(=O)C[C@H]1C(=O)NC2(CCCC2)C(=O)N(C)[C@@H](C(C)C)C(=O)N(C)[C@H](C(=O)N2CCCCC2)CC(=O)N(C)[C@@H](C)C(=O)N[C@@H]([C@@H](C)CC)C(=O)N(C)CC(=O)N(C)CC(=O)N(C)[C@@H](CC2CCCCC2)C(=O)N(C)CC(=O)N[C@@H](CCc2ccc(C(F)(F)F)c(Cl)c2)C(=O)N1C [Compound 792] ([NMeA]I[Sar][Sar][NMeCha][Sar][hPhe(3-Cl-4-CF3)][NMeD](OAll)[Ac5c][NMeV][NMeD]-Piperidide; lactam N-11)	> 500 nM	3.5 nM
CC[C@H](C)[C@@H]1NC(=O)[C@H](CC(C)C)N(C)C(=O)C[C@@H](C(=O)N(C)C)N(C)C(=O)[C@H](C2CCCC2)N(C)C(=O)C2(CCCC2)NC(=O)[C@@H]2CCCN2C(=O)[C@H](CCc2ccc(C(F)(F)F)c(F)c2)NC(=O)CN(C)C(=O)[C@H](Cc2ccc(C)cc2)N(CC)C(=O)[C@@H]2CCN2C(=O)[C@H](C)N(C)C1=O [Compound 1152] ([NMeL]I[NMeA][Aze][NEtPhe(4-Me)][Sar][hPhe(3-F,4-CF3)]P[Ac5c][NMeGly(cPent)][NMeD]-NMe2; lactam N-11)	≤ 20 nM	1.2 nM
CCO[C@@H]1C[C@H]2C(=O)NC3(CCCC3)C(=O)N(C)[C@@H](C3CCCCC3)C(=O)N(C)[C@H](C(=O)N3CCCC3)CC(=O)N(C)[C@@H](CC(F)(F)F)C(=O)N[C@@H]([C@@H](C)CC)C(=O)N(C)CC(=O)N(C)CC(=O)N(C)[C@@H](CC3CCCCC3)C(=O)N(C)CC(=O)N[C@@H](CCc3cc(F)c(C(F)(F)F)c(F)c3)C(=O)N2C1 [Compound 1149] ([NMeAbu(4,4,4-F3)]I[Sar][Sar][NMeCha][Sar][hPhe(3,5-F2-4-CF3)][Hyp](Et)[Ac5c][NMeChg][NMeD]-Pyrrolidide; lactam N-11)	≤ 20 nM	0.62 nM
